Test results from US20050059718A1, “Methods of using zonisamide as an adjunctive therapy for partial seizures” (priority 2003, published 2005).
Entries after “also recorded” stand apart in the source; their conditions may differ.

Columns and labels:
[1] = From the text: The clinical manifestations of myeloma vary from smoldering myeloma to symptomatic plasma cell dyscrasia. A lot of variables, alone or in combination, have been used as a discriminating index of malignant proliferation of B-lymphocytes or plasma cells.
[2] = patients; cited from earlier work
rat hippocampal slices = conditions: 10-30 μg/mL; cited from earlier work
[3] = system: GABA/benzodiazepine receptor ionophore complex; conditions: in vitro; no change in chloride flux; cited from earlier work
carbonic anhydrase = conditions: relative to acetazolamide; cited from earlier work
[4] = system: cultured mouse spinal cord neurons; conditions: 10-30 μg/mL, cited from earlier work
[5] = system: dopaminergic and serotonergic neurotransmission; conditions: in vivo microdialysis; cited from earlier work
[6] = cited from earlier work
liver enzymes = conditions: cited from earlier work
sodium channels = conditions: in vitro; cited from earlier work
[7] = patients on regular dosages; cited from earlier work
T-type Ca2+ currents = conditions: in vitro; cited from earlier work

## CCCC(CCC)C(=O)[O-].[Na+] [sodium valproate]
[1]; 13-month follow-up
  seizure control after replacing zonisamide: prevented convulsions

## NC(=O)N1c2ccccc2C=Cc2ccccc21 [Carbamazepine]
[2]
  association with multiple myeloma: associated with development of MM

## NS(=O)(=O)Cc1noc2ccccc12 [zonisamide, 1,2-benzisoxazole-3-methanesulfonamide]
Rat hippocampal slices
  neuronal or glial uptake of [3H]-GABA: without affecting
[1]; human, in vivo
  Bence-Jones protein in urine: not demonstrated
  M-protein concentration: > 3.5 g/dL
  bone marrow chromosomal analysis: normal karyotype of 46 XY
  diagnosis: smoldering multiple myeloma
  helper T cell count (CD4): normal
  peripheral blood examination: no cytopenia
  serum IgA: 40 mg/dL
  serum IgM: 38 mg/dL
  serum creatinine, calcium and beta2-microglobulin: not elevated
  serum immunoglobulin G (IgG): 3.68 g/dL
  serum protein immunoelectrophoresis: M-protein composed of IgG with a single lambda type of L-chain
[3]
  binding to GABA/benzodiazepine receptor ionophore complex: binds to the GABA/benzodiazepine receptor ionophore complex in an allosteric fashion
Carbonic anhydrase
  carbonic anhydrase inhibiting activity, inhibition compared to acetazolamide: 1/50
[4]; cultured mouse spinal cord neurons
  postsynaptic GABA or glutamate responses: without affecting postsynaptic GABA or glutamate responses
[4]
  synaptically-driven electrical activity: suppresses synaptically-driven electrical activity
[5]
  dopaminergic and serotonergic neurotransmission: facilitates both dopaminergic and serotonergic neurotransmission
[6]; in vivo
  half-life: long half-life
[6]; upon reaching a stable dose or following dosage adjustment
  time required to achieve steady-state levels: up to two weeks
Liver enzymes
  liver (hepatic) enzyme induction: not known to be a hepatic enzyme inducer; also recorded: no liver enzyme inducing activity
Sodium channels
  effect on sodium channels: blocks sodium channels
[7]
  correlation between dosage or serum level and immunoglobulin levels: no significant correlation
T-type Ca2+ currents
  effect on voltage-dependent, transient inward currents (T-type Ca2+ currents): reduces voltage-dependent, transient inward currents

## CCC1(c2ccccc2)C(=O)NCNC1=O [primidone]
[2]
  association with multiple myeloma: associated with development of MM

## O=C1NC(=O)C(c2ccccc2)(c2ccccc2)N1 [phenyloin]
[2]
  association with multiple myeloma: implicated in several incidents of multiple myeloma
